Laboratory results as given in patent publication US12037324B2, “Biarylmethyl heterocycles” (Université de Montréal, priority 2016, dated 2024).

Tests used:
hAT1R [1] = biological target: T1, hAT1R (Homo sapiens, UniProt P30556); assay: cell-based; conditions: agonist mode; for EC50: read-out: BRET P63 EC50
T1 sequence (P30556 1-359): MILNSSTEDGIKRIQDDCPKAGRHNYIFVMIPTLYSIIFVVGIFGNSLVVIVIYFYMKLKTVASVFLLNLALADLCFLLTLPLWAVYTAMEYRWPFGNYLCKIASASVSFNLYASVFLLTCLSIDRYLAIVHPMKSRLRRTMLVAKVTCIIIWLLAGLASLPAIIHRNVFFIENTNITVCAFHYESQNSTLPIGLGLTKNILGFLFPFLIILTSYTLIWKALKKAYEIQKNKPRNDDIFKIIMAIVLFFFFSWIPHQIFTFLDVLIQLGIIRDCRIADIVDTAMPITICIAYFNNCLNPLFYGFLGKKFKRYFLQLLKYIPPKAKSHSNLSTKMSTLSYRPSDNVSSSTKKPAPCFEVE

AGTR1 [2] = biological target: T2, AGTR1 (Homo sapiens, UniProt P30556); assay: DiscoveRx β-arrestin2 recruitment assay (enzyme complementation, Pathunter CHO-K1 AGTR1 β-arrestin cell line); format: cell-based; conditions: DiscoveRx β-arrestin2 recruitment; for DiscoveRx β-arrestin2 Ymax (%): maximal response
T2 construct: host or cells: Pathunter CHO-K1 AGTR1 β-arrestin cell line (CHO-K1)
T2 sequence (P30556 1-359): T1 sequence (P30556 1-359)
Method in brief: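 Chemiluminescent enzyme-complementation read-out of β-arrestin2 recruitment to AGTR1 in engineered CHO-K1 cells after 90 min compound exposure at 37° C. Values are 4-parameter logistic EC50s in agonist mode, IC50s in antagonist mode, with efficacy relative to the maximal All response.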

hAT1R [3] = biological target: T1, hAT1R; assay: cell-based
AGTR1 [4] = biological target: T2, AGTR1; assay: DiscoveRx IP1 accumulation assay (HTRF), agonist mode, Pathunter CHO-K1 AGTR1 β-arrestin cell line; format: cell-based; conditions: for EC50: read-out: IP-1 EC50
Method in brief: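 Agonist mode in CHO-K1 AGTR1 β-arrestin cells plated 14-16 h before; compounds at varying concentrations for 90 min at 37° C, IP1 accumulation read by HTRF (D2-conjugate and anti-IP1 cryptate, 20 min room temperature). EC50 from 4-parameter logistic fit; activity given as percentage of maximal AII effect.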

hAT1R [5] = biological target: T1, hAT1R; assay: BRET β-arrestin2 biosensor assay, higher receptor expression (hAT1R 5 ng/well), HEK293 cells; format: cell-based
[6] = section of the 42nd table ending at r951, example numbering restarts after the DiscoveRx section, read-out: β-arrestin2 EC50
[7] = Low AT1R Expression, read-out: BRET β-Arrestin2 Low AT1R Expression EC50

SMILES: CCCCC1=NC2(CCOCC2)C(=O)N1Cc1ccc(-c2cc(-c3ccccc3O)ccc2-c2nnn[nH]2)cc1 [Example 157]
- BRET P63 Ymax (hAT1R [1]): 16.5%
- EC50 (hAT1R [1]): 37.6 nM
- EC50 (AGTR1 [2]): 30.3 nM
- DiscoveRx β-arrestin2 Ymax (%) (AGTR1 [2]): 44.7%
- EC50 (hAT1R [3]; [6]): 61.1 nM
- IP-1 Ymax (%) (AGTR1 [4]): 11.4%
- EC50 (AGTR1 [4]): 60.1 nM

SMILES: CCCCC1=NC2(CCCC2)C(=O)N1Cc1ccc(-c2cc(-c3cccc(F)c3)ccc2-c2nn[nH]n2)cc1 [Example 127]
- BRET β-Arrestin2 High AT1R Expression Ymax (%) (hAT1R [5]): 82.7%
- EC50 (hAT1R [5]; High AT1R Expression): 23.6 nM
- EC50 (hAT1R [1]): > 10000 nM
- BRET β-Arrestin2 Low AT1R Expression Ymax (%) (hAT1R [3]; Low AT1R Expression): 29.5%
- EC50 (hAT1R [3]; [7]): 17.3 nM

SMILES: CCc1nc2c(C)cc(C)nc2n1Cc1ccc(-c2cc(-c3cc(C)cc(C)n3)ccc2C(=O)O)cc1 [Example 194]
- BRET P63 Ymax (hAT1R [1]): 16.2%
- EC50 (hAT1R [1]): 278 nM
- EC50 (AGTR1 [2]): 63.2 nM
- DiscoveRx β-arrestin2 Ymax (%) (AGTR1 [2]): 36.6%
- EC50 (hAT1R [3]; [6]): 295 nM
- IP-1 Ymax (%) (AGTR1 [4]): 14.5%
- EC50 (AGTR1 [4]): 214 nM

SMILES: CCCCC1=NC2(CCOCC2)C(=O)N1Cc1ccc(-c2cc(-c3ccccc3)ccc2-c2nnn[nH]2)cc1 [Example 156]
- EC50 (hAT1R [1]): > 100000 nM
- EC50 (AGTR1 [2]): 85.1 nM
- DiscoveRx β-arrestin2 Ymax (%) (AGTR1 [2]): 19.9%
- EC50 (hAT1R [3]; [6]): 250 nM
- IP-1 Ymax (%) (AGTR1 [4]): 7.2%
- EC50 (AGTR1 [4]): 189 nM

SMILES: CCc1nc2c(C)cc(C)nc2n1Cc1ccc(-c2cc(-n3cc(C)cn3)ccc2-c2nnn[nH]2)cc1 [Example 217, 2-ethyl-5,7-dimethyl-3-((5′-(4-methyl-1H-pyrazol-1-yl)-2′-(1H-tetrazol-5-yl)-[1,1′-biphenyl]-4-yl)methyl)-3H-imidazo[4,5-b]pyridine]
- BRET P63 Ymax (hAT1R [1]): 32.1%
- EC50 (hAT1R [1]): 2.7 nM
- EC50 (AGTR1 [2]): 4.6 nM
- DiscoveRx β-arrestin2 Ymax (%) (AGTR1 [2]): 70.3%
- EC50 (hAT1R [3]; [6]): 3 nM
- IP-1 Ymax (%) (AGTR1 [4]): 21.8%
- EC50 (AGTR1 [4]): 22.5 nM

SMILES: CCCC1=NC2(CCOC2)C(=O)N1Cc1ccc(-c2cc(-c3ccccc3O)ccc2-c2nnn[nH]2)cc1 (single isomer, unassigned) [Example 164]
- BRET P63 Ymax (hAT1R [1]): 15.6%
- EC50 (hAT1R [1]): 106 nM
- EC50 (AGTR1 [2]): 76 nM
- DiscoveRx β-arrestin2 Ymax (%) (AGTR1 [2]): 58.7%
- EC50 (hAT1R [3]; [6]): 160 nM
- IP-1 Ymax (%) (AGTR1 [4]): 17.3%
- EC50 (AGTR1 [4]): 231 nM

SMILES: CCc1nc2c(C)cc(C)nc2n1Cc1ccc(-c2cc(-c3cccc(C)c3)ccc2-c2nnn[nH]2)nn1 [Example 191, 2-ethyl-5,7-dimethyl-3-((6-(3′-methyl-4-(1H-tetrazol-5-yl)biphenyl-3-yl)pyridazin-3-yl)methyl)-3H-imidazo[4,5-b]pyridine]
- BRET P63 Ymax (hAT1R [1]): 24.2%
- EC50 (hAT1R [1]): 101 nM
- EC50 (AGTR1 [2]): 20.7 nM
- DiscoveRx β-arrestin2 Ymax (%) (AGTR1 [2]): 53.0%
- EC50 (hAT1R [3]; [6]): 76 nM
- IP-1 Ymax (%) (AGTR1 [4]): 29.9%
- EC50 (AGTR1 [4]): 118 nM

SMILES: CCc1nc2c(C)cc(C)nc2n1Cc1ccc(-c2cc(-n3cnc4ccccc43)ccc2-c2nnn[nH]2)cc1 [Example 222]
- EC50 (hAT1R [1]): > 100000 nM
- EC50 (AGTR1 [2]): 56.9 nM
- DiscoveRx β-arrestin2 Ymax (%) (AGTR1 [2]): 42.7%
- EC50 (hAT1R [3]; [6]): 98.5 nM
- IP-1 Ymax (%) (AGTR1 [4]): 4.9%
- EC50 (AGTR1 [4]): 187 nM

SMILES: CCCCC1=NC2(CCOCC2)C(=O)N1Cc1ccc(-c2cc(-c3cc(C)ccn3)ccc2-c2nn[nH]n2)cc1 [Example 171, 2-butyl-3-((5′-(4-methylpyridin-2-yl)-2′-(2H-tetrazol-5-yl)-[1,1′-biphenyl]-4-yl)methyl)-8-oxa-1,3-diazaspiro[4.5]dec-1-en-4-one]
- BRET P63 Ymax (hAT1R [1]): 20.1%
- EC50 (hAT1R [1]): 30.9 nM
- EC50 (AGTR1 [2]): 33.5 nM
- DiscoveRx β-arrestin2 Ymax (%) (AGTR1 [2]): 38.6%
- EC50 (hAT1R [3]; [6]): 68.4 nM
- IP-1 Ymax (%) (AGTR1 [4]): 68.1%
- EC50 (AGTR1 [4]): 8120 nM

SMILES: CCOc1nc2cccc(C(=O)O)c2n1Cc1ccc(-c2cc(-n3cc(C)cn3)ccc2-c2nn[nH]n2)cc1 [Example 340]
- BRET P63 Ymax (hAT1R [1]): 17.3%
- EC50 (hAT1R [1]): 2.9 nM
- EC50 (hAT1R [3]; [6]): 5.8 nM

SMILES: CCc1nc2c(C)cc(C)nc2n1Cc1ccc(-c2cc(Oc3cccc(F)n3)ccc2-c2nn[nH]n2)cc1 [Example 256]
- BRET P63 Ymax (hAT1R [1]): 30.5%
- EC50 (hAT1R [1]): 43 nM
- EC50 (hAT1R [3]; [6]): 34.5 nM

SMILES: CCOc1nc2cccc(C(=O)O)c2n1Cc1ccc(-c2cc(-n3cc4ccccc4n3)ccc2-c2nn[nH]n2)cc1 [Example 341]
- BRET P63 Ymax (hAT1R [1]): 18.8%
- EC50 (hAT1R [1]): 4.4 nM
- EC50 (hAT1R [3]; [6]): 12.2 nM

SMILES: CCc1nc2c(C)cc(C)nc2n1Cc1ccc(-c2cc(-n3cncc3C)ccc2-c2nnn[nH]2)cc1 [Example 220]
- BRET P63 Ymax (hAT1R [1]): 18.2%
- EC50 (hAT1R [1]): 36.8 nM
- EC50 (hAT1R [3]; [6]): 36 nM

SMILES: CCc1nc2c(C)cc(C)nc2n1Cc1ccc(-c2cc(-n3cnc(C)c3)ccc2-c2nnn[nH]2)cc1 [Example 221]
- BRET P63 Ymax (hAT1R [1]): 5.4%
- EC50 (hAT1R [1]): 28 nM
- EC50 (hAT1R [3]; [6]): 159 nM

SMILES: CC1=NC2(CCOC2)C(=O)N1Cc1ccc(-c2cc(-c3ccccc3)ccc2-c2nn[nH]n2)cc1 (single isomer, unassigned) [Example 174, 3-((6′-(2H-tetrazol-5-yl)-[1,1′:3′,1″-terphenyl]-4-yl)methyl)-2-methyl-7-oxa-1,3-diazaspiro[4.4]non-1-en-4-one]
- BRET P63 Ymax (hAT1R [1]): 10.3%
- EC50 (hAT1R [1]): 770 nM
- EC50 (hAT1R [3]; [6]): 634 nM

SMILES: CCCCc1nc(Cl)c(C(=O)O)n1Cc1ccc(-c2cc(Oc3cccnc3)ccc2-c2nn[nH]n2)cc1 [Example 428]
- EC50 (hAT1R [1]): > 10000 nM
- EC50 (hAT1R [3]; [6]): 122 nM

SMILES: CCc1nc2c(C)cc(C)nc2n1Cc1ccc(-c2cc(-n3cc(C(F)(F)F)cn3)ccc2-c2nnn[nH]2)cc1 [Example 224]
- BRET P63 Ymax (hAT1R [1]): 20.8%
- EC50 (hAT1R [1]): 11.3 nM
- EC50 (hAT1R [3]; [6]): 7.6 nM

SMILES: CCOc1nc2cccc(C(=O)O)c2n1Cc1ccc(-c2cc(-c3cc(OC)ccn3)ccc2-c2noc(=O)[nH]2)cc1 [Example 301]
- BRET P63 Ymax (hAT1R [1]): 31.2%
- EC50 (hAT1R [1]): 13.6 nM
- EC50 (hAT1R [3]; [6]): 14.8 nM

SMILES: CCOc1nc2cccc(C(=O)O)c2n1Cc1ccc(-c2cc(N3CCC[C@@H](C)C3)ccc2-c2noc(=O)[nH]2)cc1 [Example 325]
- EC50 (hAT1R [1]): > 10000 nM
- EC50 (hAT1R [3]; [6]): 201 nM

SMILES: CCc1nc2c(C)cc(C)nc2n1Cc1ccc(-c2cc(N3CCC4(CCOC4)C3)ccc2-c2nn[nH]n2)cc1 (centres unmarked) [Example 92]
- BRET P63 Ymax (hAT1R [1]): 17.8%
- EC50 (hAT1R [1]): 278 nM
- BRET β-Arrestin2 Low AT1R Expression Ymax (%) (hAT1R [3]; Low AT1R Expression): 66.5%
- EC50 (hAT1R [3]; [7]): 309 nM
- IP-1 Ymax (%) (AGTR1 [4]): 51.1%
- EC50 (AGTR1 [4]): 1400 nM

SMILES: CCOc1nc2cccc(C(=O)O)c2n1Cc1ccc(-c2cc(-c3cccc(C)n3)ccc2-c2noc(=O)[nH]2)cc1 [Example 304]
- BRET P63 Ymax (hAT1R [1]): 17.3%
- EC50 (hAT1R [1]): 29.7 nM
- EC50 (hAT1R [3]; [6]): 38.3 nM

SMILES: CCOc1nc2cccc(C(=O)O)c2n1Cc1ccc(-c2cc(-c3ccc(C)cn3)ccc2-c2noc(=O)[nH]2)cc1 [Example 300, 2-ethoxy-1-((5′-(5-methylpyridin-2-yl)-2′-(5-oxo-4,5-dihydro-1,2,4-oxadiazol-3-yl)-[1,1′-biphenyl]-4-yl)methyl)-1H-benzo[d]imidazole-7-carboxylic acid]
- BRET P63 Ymax (hAT1R [1]): 25.1%
- EC50 (hAT1R [1]): 9 nM
- EC50 (hAT1R [3]; [6]): 12.8 nM

SMILES: CCOc1nc2cccc(C(=O)O)c2n1Cc1ccc(-c2cc(-c3cnccn3)ccc2-c2noc(=O)[nH]2)cc1 [Example 307]
- EC50 (hAT1R [1]): > 10000 nM
- EC50 (hAT1R [3]; [6]): 962 nM

SMILES: CCc1nc2c(C)cc(C)nc2n1Cc1ccc(-c2cc(-n3cc(C)c(C)n3)ccc2-c2nnn[nH]2)cc1 [Example 223]
- BRET P63 Ymax (hAT1R [1]): 9.8%
- EC50 (hAT1R [1]): 5.9 nM
- EC50 (hAT1R [3]; [6]): 9.2 nM

SMILES: CCOc1nc2cccc(C(=O)O)c2n1Cc1ccc(-c2cc(OC3CCCCC3)ccc2-c2nn[nH]n2)cc1 [Example 343]
- BRET P63 Ymax (hAT1R [1]): 15.3%
- EC50 (hAT1R [1]): 26.7 nM
- EC50 (hAT1R [3]; [6]): 26.2 nM
